Laboratory results: patent US11845747B2, “Ester and carbonate pyrimidine compounds as JAK kinase inhibitors” (priority 2019, dated 2023)
≈ marks a conversion by molar mass, not a printed value.

Key:
JAK1 = biological target: T1, JAK1 (Homo sapiens, UniProt P23458); test: Biochemical LanthaScreen JAK1 kinase assay; settings: Km ATP 25 μM; pKi from pIC50 by Cheng-Prusoff; read-out: JAK 1 (pKi) (converted)
T1 construct: GST; purchased Life Technologies
Procedure: Assay 1: Biochemical JAK and Tyk2 Kinase Assays A panel of four LanthaScreen JAK biochemical assays (JAK1, 2, 3 and Tyk2) were carried in a common kinase reaction buffer (50 mM HEPES, pH 7.5, 0.01% Brij-35, 10 mM MgCl2, and 1 mM EGTA). Recombinant GST-tagged JAK enzymes and a GFP-tagged STAT1 peptide substrate were obtained from Life Technologies. Serially or discretely diluted compounds were pre-incubated with each of the four JAK enzymes and the substrate in white 384-well microplates (Corning) at ambient temperature for 1 h. ATP was subsequently added to initiate the kinase reactions in 10 μL total volume, with 1% DMSO. […] Kinase reactions were allowed to proceed for 1 hour at ambient temperature before a 10 μL preparation of EDTA (10 mM final concentration) and Tb-anti-pSTAT1 ([…]) antibody (Life Technologies, 2 nM final concentration) in TR-FRET dilution buffer (Life Technologies) was added. The plates were allowed to incubate at ambient temperature for 1 h before being read on the EnVision reader (Perkin Elmer). Emission ratio signals (520 nm/495 nm) were recorded and utilized to calculate the percent inhibition values based on DMSO and background controls. For dose-response analysis, percent inhibition data were plotted vs. compound concentrations, and IC50 values were determined from a 4-parameter robust fit model with the Prism software (GraphPad Software). Results were expressed as pIC50 (negative logarithm of IC50) and subsequently converted to pKi (negative logarithm of dissociation constant, Ki) using the Cheng-Prusoff equation.

physchem [1] = assay type: physicochemical; settings: pH 7.4, aqueous buffer, thermodynamic from solid
Procedure: Assay 4: Aqueous Solubility Assay The purpose of this assay was to quantify the solubility of test compounds in pH 4 and pH 7.4 PBS buffers. The assay required 40 μL of 10 mM DMSO test compound solution per desired buffer in addition to 20 μL required to make a test standard. For example, to test a compound in both buffers, 100 μL (2*40 μL+20 μL) of 10 mM DMSO compound stock solution was required. The standard was created by diluting 20 μL of 10 mM DMSO compound stock solution into 180 μL of methanol and was shaken for five minutes to ensure solution uniformity. […] This 1,000 μM solution was run on an Agilent 1260 LC-MS system by injecting 2 μL in order to obtain the peak area. For the test solutions, 40 μL of 10 mM DMSO compound stock solution, per PBS buffer condition, were dried down into a powder overnight. Once in powder form, 400 μL of the desired PBS buffer was added to the powder and allowed to shake vigorously for four hours. The maximum theoretical concentration for this sample solution was 1,000 μM. After four hours of shaking, the samples were centrifuged for 10 minutes at 3,000 RPM before injecting 2 μL on the same Agilent 1260 LC-MS system to obtain the peak area. […]

physchem [2] = assay type: physicochemical; settings: thermodynamic from solid
Procedure: Assay 5: Solubility Assay in Organic Excipients The purpose of this assay was to quantify the solubility of test compounds in different organic excipients such as diisopropyl adipate, medium chain triglycerides (MCT), propylene glycol, and polyethylene glycol. The assay required 80 μL of 100 mM DMSO test compound solution per desired excipient in addition to 40 μL required to make a test standard. For example, to test a compound in all five […]) of 100 mM DMSO compound stock solution was required. The standard was created by diluting 40 μL of 100 mM DMSO compound stock solution into 160 μL of methanol and was shaken for five minutes to ensure solution uniformity. […] This 20,000 μM solution was run on an Agilent 1260 LC-MS system by injecting 0.2 μL in order to obtain the peak area. For the test solutions, 80 μL of 100 mM DMSO compound stock solution, per excipient, were dried down into a powder overnight. Once in powder form, 400 μL of the desired excipient was added to the powder and allowed to shake vigorously for four hours. The maximum theoretical concentration for this sample solution was 20,000 μM. After four hours of shaking, the samples were centrifuged for 10 minutes at 3,000 RPM before injecting 0.2 μL on the same Agilent 1260 LC-MS system to obtain the peak area. […] In Table 3 below, A represents a value above 10, B represents a value between 5 and 10, C represents a value below 5.

[3] = oil or lipid, Solubility in MCT
[4] = organic solvent or mixture, Solubility in Diisopropyl adipate
[5] = organic solvent or mixture, Solubility in PEG400
[6] = organic solvent or mixture, Solubility in Propylene glycol
[7] = organic solvent or mixture, Solubility in Transcutol

T1 sequence (P23458 whole entry): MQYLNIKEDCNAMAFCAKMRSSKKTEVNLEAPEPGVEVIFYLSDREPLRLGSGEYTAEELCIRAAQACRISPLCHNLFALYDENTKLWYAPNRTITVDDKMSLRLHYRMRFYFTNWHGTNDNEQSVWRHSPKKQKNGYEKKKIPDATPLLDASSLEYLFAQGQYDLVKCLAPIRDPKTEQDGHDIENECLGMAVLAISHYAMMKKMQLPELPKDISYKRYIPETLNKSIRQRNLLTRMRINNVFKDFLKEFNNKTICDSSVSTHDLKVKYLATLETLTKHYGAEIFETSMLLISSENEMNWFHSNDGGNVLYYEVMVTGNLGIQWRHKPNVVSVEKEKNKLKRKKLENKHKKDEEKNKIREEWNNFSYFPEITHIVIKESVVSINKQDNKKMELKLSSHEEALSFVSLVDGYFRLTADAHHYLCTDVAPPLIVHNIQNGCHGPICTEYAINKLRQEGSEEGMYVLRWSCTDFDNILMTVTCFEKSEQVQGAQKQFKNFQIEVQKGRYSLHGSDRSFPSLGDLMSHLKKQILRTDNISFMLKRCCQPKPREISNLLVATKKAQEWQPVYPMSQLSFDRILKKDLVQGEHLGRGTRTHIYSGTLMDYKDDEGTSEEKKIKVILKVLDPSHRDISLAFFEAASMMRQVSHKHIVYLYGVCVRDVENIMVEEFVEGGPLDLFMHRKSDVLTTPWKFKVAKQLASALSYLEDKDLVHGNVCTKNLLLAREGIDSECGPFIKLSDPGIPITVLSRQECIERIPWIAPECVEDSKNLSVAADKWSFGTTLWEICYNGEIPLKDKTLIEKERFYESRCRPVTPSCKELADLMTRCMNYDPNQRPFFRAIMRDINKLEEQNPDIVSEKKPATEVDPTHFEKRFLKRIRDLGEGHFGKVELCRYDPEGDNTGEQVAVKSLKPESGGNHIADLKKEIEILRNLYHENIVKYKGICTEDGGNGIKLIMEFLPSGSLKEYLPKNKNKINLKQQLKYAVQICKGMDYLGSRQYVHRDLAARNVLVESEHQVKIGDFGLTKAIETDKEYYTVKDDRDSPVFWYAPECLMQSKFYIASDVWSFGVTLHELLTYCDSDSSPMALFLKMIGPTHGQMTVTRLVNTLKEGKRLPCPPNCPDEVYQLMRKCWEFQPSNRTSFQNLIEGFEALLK

Compound	Ki (JAK1) [nM]	solubility at 4 h (physchem [1]) [µM]	solubility at 4 h (physchem [2]; [3]) [µg/mL]	solubility at 4 h (physchem [2]; [4]) [µg/mL]	solubility at 4 h (physchem [2]; [5]) [µg/mL]	solubility at 4 h (physchem [2]; [6]) [µg/mL]	solubility at 4 h (physchem [2]; [7]) [µg/mL]
CCS(=O)(=O)N1[C@@H]2CCC[C@H]1C[C@H](N(C)c1nc(COC(C)=O)c(F)c(Nc3cc(C)[nH]n3)n1)C2 [Compound 1, (2-(((1R,3s,5S)-9-(ethylsulfonyl)-9-azabicyclo[3.3.1]nonan-3-yl)(methyl)amino)-5-fluoro-6-((5-methyl-1H-pyrazol-3-yl)amino)pyrimidin-4-yl)methyl acetate]	0.1 to 1	10 to 50	< 5000	> 10000	5000 to 10000	> 10000	> 10000
CCC(=O)OCc1nc(N(C)[C@@H]2C[C@H]3CCC[C@@H](C2)N3S(=O)(=O)CC)nc(Nc2cc(C)[nH]n2)c1F [Compound 2, (2-(((1R,3s,5S)-9-(ethylsulfonyl)-9-azabicyclo[3.3.1]nonan-3-yl)(methyl)amino)-5-fluoro-6-((5-methyl-1H-pyrazol-3-yl)amino)pyrimidin-4-yl)methyl propionate]	0.1 to 1	10 to 50 (≈ 5.24 to 26.2 µg/mL)	< 5000	> 10000	> 10000	> 10000	> 10000
CCCC(=O)OCc1nc(N(C)[C@@H]2C[C@H]3CCC[C@@H](C2)N3S(=O)(=O)CC)nc(Nc2cc(C)[nH]n2)c1F [Compound 3, (2-(((1R,3s,5S)-9-(ethylsulfonyl)-9-azabicyclo[3.3.1]nonan-3-yl)(methyl)amino)-5-fluoro-6-((5-methyl-1H-pyrazol-3-yl)amino)pyrimidin-4-yl)methyl butyrate]	0.1 to 1	10 to 50 (≈ 5.38 to 26.9 µg/mL)	< 5000	> 10000	> 10000	> 10000	> 10000
CCCCC(=O)OCc1nc(N(C)[C@@H]2C[C@H]3CCC[C@@H](C2)N3S(=O)(=O)CC)nc(Nc2cc(C)[nH]n2)c1F [Compound 4, (2-(((1R,3s,5S)-9-(ethylsulfonyl)-9-azabicyclo[3.3.1]nonan-3-yl)(methyl)amino)-5-fluoro-6-((5-methyl-1H-pyrazol-3-yl)amino)pyrimidin-4-yl)methyl pentanoate]	0.1 to 1	50 to 100 (≈ 27.6 to 55.2 µg/mL)	< 5000	> 10000	> 10000	< 5000	> 10000
CCCCCCC(=O)OCc1nc(N(C)[C@@H]2C[C@H]3CCC[C@@H](C2)N3S(=O)(=O)CC)nc(Nc2cc(C)[nH]n2)c1F [Compound 5, (2-(((1R,3s,5S)-9-(ethylsulfonyl)-9-azabicyclo[3.3.1]nonan-3-yl)(methyl)amino)-5-fluoro-6-((5-methyl-1H-pyrazol-3-yl)amino)pyrimidin-4-yl)methyl heptanoate]	1 to 10	10 to 50 (≈ 5.8 to 29 µg/mL)	< 5000	> 10000	> 10000	5000 to 10000 (≈ 8.62 to 17.2 mM)	> 10000
CCS(=O)(=O)N1[C@@H]2CCC[C@H]1C[C@H](N(C)c1nc(COC(=O)OC3CCCCC3)c(F)c(Nc3cc(C)[nH]n3)n1)C2 [Compound 6, cyclohexyl ((2-(((1R,3s,5S)-9-(ethylsulfonyl)-9-azabicyclo[3.3.1]nonan-3-yl)(methyl)amino)-5-fluoro-6-((5-methyl-1H-pyrazol-3-yl)amino)pyrimidin-4-yl)methyl) carbonate]	1 to 10	10 to 50 (≈ 5.94 to 29.7 µg/mL)	< 5000	> 10000	5000 to 10000 (≈ 8.42 to 16.8 mM)	5000 to 10000 (≈ 8.42 to 16.8 mM)	> 10000
CCS(=O)(=O)N1[C@@H]2CCC[C@H]1C[C@H](N(C)c1nc(COC(=O)C3CCOCC3)c(F)c(Nc3cc(C)[nH]n3)n1)C2 [Compound 7, (2-(((1R,3s,5S)-9-(ethylsulfonyl)-9-azabicyclo[3.3.1]nonan-3-yl)(methyl)amino)-5-fluoro-6-((5-methyl-1H-pyrazol-3-yl)amino)pyrimidin-4-yl)methyl tetrahydro-2H-pyran-4-carboxylate]	0.1 to 1	100 to 1000 (≈ 58 to 580 µg/mL)	< 5000	> 10000	> 10000	> 10000	
CCS(=O)(=O)N1[C@@H]2CCC[C@H]1C[C@H](N(C)c1nc(COC(=O)OC(C)C)c(F)c(Nc3cc(C)[nH]n3)n1)C2 [Compound 8, (2-(((1R,3s,5S)-9-(ethylsulfonyl)-9-azabicyclo[3.3.1]nonan-3-yl)(methyl)amino)-5-fluoro-6-((5-methyl-1H-pyrazol-3-yl)amino)pyrimidin-4-yl)methyl isopropyl carbonate]	0.1 to 1	50 to 100 (≈ 27.7 to 55.4 µg/mL)	< 5000	> 10000	> 10000	< 5000	
CCS(=O)(=O)N1[C@@H]2CCC[C@H]1C[C@H](N(C)c1nc(COC(=O)OC3CCOCC3)c(F)c(Nc3cc(C)[nH]n3)n1)C2 [Compound 9, (2-(((1R,3s,5S)-9-(ethylsulfonyl)-9-azabicyclo[3.3.1]nonan-3-yl)(methyl)amino)-5-fluoro-6-((5-methyl-1H-pyrazol-3-yl)amino)pyrimidin-4-yl)methyl (tetrahydro-2H-pyran-4-yl) carbonate]	0.1 to 1	100 to 1000 (≈ 59.6 to 596 µg/mL)	< 5000	> 10000	> 10000	> 10000	
CCS(=O)(=O)N1[C@@H]2CCC[C@H]1C[C@H](N(C)c1nc(CO)c(F)c(Nc3cc(C)[nH]n3)n1)C2 [Compound M, (2-(((1R,3s,5S)-9-(ethylsulfonyl)-9-azabicyclo[3.3.1]nonan-3-yl)(methyl)amino)-5-fluoro-6-((5-methyl-1H-pyrazol-3-yl)amino)pyrimidin-4-yl)methanol]	≤ 0.1	10 to 50 (≈ 4.68 to 23.4 µg/mL)	< 5000	< 5000	< 5000	< 5000	> 10000
